According to US6660742B2, “Compositions and methods of the use thereof achiral analogues of CC-1065 and the duocarmycins” (priority 2000, dated 2003):
Read-outs that look alike come from different tables or passages of the source.

What was measured:
P815 mastocytoma cells = assay: MTT cytotoxicity on P815 cells; type: cell-based, murine; conditions: 72 hr incubation
Method: (§1) The P815 and L1210 cell lines were obtained from American Type Tissue Culture Collection (ATCC). The cell lines were grown in Delbecco's Modified Eagle Medium (DMEM, Atlanta Biologicals) supplemented with 10% fetal bovine serum, Hepes Buffer (2 mM, Mediatech Cellgro, 25-060-Cl), L-Glutamine (2 mM, Mediatech Cellgro), and penicillin/streptomycin (50,000 units penicillin, 50,000 […], Atlanta Biologicals). Cells were maintained at 37° C. in a 5% humidified CO2 atmosphere. Cultured cells were counted using a hemocytometer and resuspended in fresh DMEM at a concentration of 8×10^5 cells/mL. This cell suspension (100 μL) was added to 96 well flat -bottom cell culture plates. At this concentration, 80,000 cells were seeded in each well. Drug solutions (dissolved in DMSO and diluted in DMEM) were added to each well (5 μL/well) resulting in final concentrations ranging from 1×10^−4 to 1×10^−12 M. Quadruplicate wells were prepared for each drug concentration. The plates were incubated for 72 hr at 37° C. in a 5% CO2 atmosphere. MTT (3-(4,5-dimethylthiazol-2-yl)-2,5-diphenyl tetrazolium bromide) was dissolved in PBS (5 mg/ml). After the indicated cell incubation period, 10 μL of this stock MTT solution was added to each well and the plates were further incubated for 4 h at 37° C. in a 5% CO2 atmosphere. […] The contents of the well were mixed thoroughly by pipetting the cell suspension up and down and the plates were allowed to sit at room temperature for 15 min in order to allow for full development of the purple color. The plates were read on a Dynatech Plate Reader, utilizing Dynex Revelation 3.2 software, with a test wavelenth of 570 nm and a reference wavelength of 630 nm.

L1210 leukemia cells = assay: MTT cytotoxicity on L1210 cells; type: cell-based, murine; conditions: 72 hr incubation
Method: as §1

supercoil pBR322 DNA = assay: pBR322 strand nicking assay; type: biochemical
Description: When a compound is covalently bound to a purine-N3 in the minor groove of DNA, the adduct is thermally unstable. It is readily hydrolyzed to produce a DNA strand (2). Consequently, the formation of adenine-N3 (or guanine-N3) alkylation adducts can be detected by thermal conversion of supercoil pBR322 DNA (Form I) to nicked open […] DNA (Form II) as a result of the formation of single strand breaks. These two different forms of pBR322 DNA can then be separated by agarose gel electrophoresis, and the relative amounts of each form can be determined by densitometry of methylene blue stained gels (39). The supercoil form of pBR322 DNA is more compact than the open circular form, and as a result, moves further down the gel towards the positive electrode.
Solutions of the drugs dissolved in N,N-dimethylacetamide (DMA) were made at 0.10 mM concentrations, and were always stored in the refrigerator.
Tris buffer solution at pH 7.4 at 25° C. and 0.010 M was made from Tris HCl (0.661 g), Tris base (0.097 g) diluted to a 100 mL volume with distilled water. Then EDTA-Na2—2H2O (0.186 g) and KCl (3.72 g) were added to the Tris HCl solution and diluted to 500 mL volume with distilled water. A TBE solution was prepared from Carolina Lot #4020602 Electrophoresis buffer 20 times TBE diluted to a volume of three liters with deionized water. The agarose gel was prepared from agarose low EEO (0.32 g) dissolved in TBE buffer (40 mL) and heated in a microwave oven until dissolved.
The pBR322 DNA (100 μg/100 μL) from Pharmacia Biotech was in a buffer (10 mM Tris-HCl pH 7.5, and 1 mM EDTA). The DNA was prepared from plasmid DNA isolated from E. coli HB101 by the alkaline lysate procedure and was purified by Sepharcryl S-100 chromatography followed by CsCl-ethidium bromide centrifugation.
The alkylation samples were prepared by adding DNA (10 μL), Tris-EDTA KCl buffer (18 μL), and compound (2 μL) at 100 μM concentration to Eppendorf tubes. The samples were incubated at 40° C. for 40 h. The samples were removed then centrifuged for one minute. 10% SDS (sodium dodecylsulfate) (2 μL), 50% glycerol (5 μL), and bromophenol blue (2 μL) were added to the samples. The contents of the tubes were mixed with a Vortex mixer then centrifuged to consolidate the samples. The agarose gel was covered with TBE-buffer in the chamber. The samples were loaded onto the agarose gel and run at 40 V for three hours, or when the band were about three/fourths of the way down the gel.
The gel was removed and stained with methylene blue (45 min). At this time, the stained gel was placed in a water chamber overnight. The intensities of each band i.e. Form I and II were determined using densitometry.

plasmid pBR322 DNA = assay: Taq polymerase stop assay; type: biochemical
[1] = test system: panel of 60 human cancer cell lines; assay: NCI in-vitro cytotoxicity screen, whole panel; type: cell-based; conditions: for range of activity: 48 hour exposure
[2] = test system: human tumor cells in hollow fibers; assay: NCI hollow fiber assay, all cell lines; type: in vivo, mice
[3] = test system: mouse L1210 leukemia cells; conditions: cited from earlier work; for IC50 values (range in words): growth of mouse L1210 leukemia cells in culture
L1210 leukemia = conditions: carzelesin 400 μg/kg, adozelesin 100 μg/kg; cited from earlier work
[4] = test system: K562 human chronic myeloid leukemia cells; assay: MTT cytotoxicity on K562 cells; type: cell-based
[5] = test system: human colon adenocarcinoma cell line, LS 174T; assay: SRB cytotoxicity on LS174T cells; type: cell-based
Method: Cells were seeded in 96-well microtiter plates at densities of 1000 cells/well. The optimal seeding density was determined to ensure exponential growth in control wells throughout the experimental period and to obtain a linear relationship between absorbance at 492 nm and cell number when analyzed by the sulforhodamine B (SRB) assay (43). 24 hours after seeding the cells were incubated for 1 hour or continuously for 3 days with the drugs (concentration range 0.01 to 500 μM). The cells were washed once and then incubated in drug free medium for 6 days. At the end of the incubation cell growth was determined by the SRB assay, which quantifies viable cells by measuring their total cellular protein content. […] Similar studies were conducted against the growth of PC3 (human prostate cancer cells) and MCF-7 (human breast cancer cells).

[6] = mice; therapeutic doses; cited from earlier work
[7] = 0.1 mM compound, 40° C. for 40 h
[8] = Homo sapiens, K562, 1 h, read-out: IC50 1 hour exposure

## Cl.Cn1cc(NC(=O)c2cccn2C)cc1C(=O)NCCCCNC(=O)CCCC(=O)Nc1ccc2oc(C(=O)Nc3cc(O)ccc3CCCl)cc2c1 [Compound 17, N-[(N-(4-Aminobutyl)-N-methylpyrrole-4-(N-methylpyrrole-2-carboxamido)-2-carboxamido)]-N-[5-(4-(2-chloroethyl)phenol-3-yl)benzofuran-2-carboxamido)]glutarodiamide hydrochloride]
P815 mastocytoma cells
  IC50: 61 µM
L1210 leukemia cells
  IC50: 64 µM

## N-[(N-(4-Aminobutyl)-N-methylimidazole-4-(N-methylpyrrole-2-carboxamido)-2-carboxamido)]-N-[5-(4-(2-chloroethyl)phenol-3-yl)benzofuran-2-carboxamido)]glutarodiamide hydrochloride [Compound 19]
P815 mastocytoma cells
  IC50: > 100 µM
L1210 leukemia cells
  IC50: > 100 µM
Supercoil pBR322 DNA
  Form II DNA (%): quantitative
Plasmid pBR322 DNA
  additional unique alkylation site: 3′-(G)CA-5′
  alkylation of the 5′-AAAAA sequence: did not alkylate
  alkylation selectivity (sequence): 3′-ATTT-5′

## N-[(N-(4-Aminobutyl)-N-methylpyrrole-4-(N-methylimidazole-2-carboxamido)-2-carboxamido)]-N-[5-(4-(2-chloroethyl)phenol-3-yl)benzofuran-2-carboxamido)]glutarodiamide hydrochloride [Compound 18]
P815 mastocytoma cells
  IC50: > 100 µM
L1210 leukemia cells
  IC50: > 100 µM
Supercoil pBR322 DNA
  Form II DNA (%): quantitative
Plasmid pBR322 DNA
  additional unique alkylation site: 3′-GCAACG-5′
  alkylation of the 5′-AAAAA sequence: did not alkylate
  alkylation selectivity (sequence): 3′-ATTT-5′

## COc1cc2cc(C(=O)Nc3cc(N)c4ccccc4c3CCCl)[nH]c2c(OC)c1OC [Compound 25, 4-(2-chloroethyl)-3-(5,6,7-trimethoxyindole-2-carboxamido)-1-naphthylamine]
[1]
  range of activity: micromolar range
  activity against leukemia cells: none of these compounds showed much activity
  activity against melanoma cells: active
  activity against solid tumors cells: strong activity
[2]
  cell kill: cell kill observed
[2]; IP+SC
  composite score: 54
[2]; intraperitoneal fibers
  IP score: 46
[2]; subcutaneous fibers
  SC score: 8
Supercoil pBR322 DNA; [7]
  Form II DNA (%): quantitative
Plasmid pBR322 DNA
  covalent DNA AT sequence selectivity: preferentially at a five consecutive A(865)AAAA sequence

## Cc1c[nH]c2c(O)cc3c(c12)[C@H](CCl)CN3C(=O)c1cc2cc(NC(=O)Nc3ccc4[nH]c(C(=O)N5C[C@@H](CCl)c6c5cc(O)c5[nH]cc(C)c65)cc4c3)ccc2[nH]1 [Bizelesin]
[3]
  IC50: 1 pM
  potency relative to (+)-CC1065: 20-30 times

## COc1cc2cc(C(=O)Nc3cc(N)ccc3CCCl)[nH]c2c(OC)c1OC [Compound 24, 4-(2-Chloroethyl)-3-(5,6,7-trimethoxyindole-2-carboxamido)aniline]
Supercoil pBR322 DNA; [7]
  Form II DNA (%): quantitative

## COc1cc2cc(C(=O)N3CC(CCl)c4c3cc(O)c3ccccc43)[nH]c2c(OC)c1OC (stereo not shown) [Compound 28, seco-CBI-trimethoxyindole, reference compound]
Plasmid pBR322 DNA
  covalent DNA AT sequence selectivity: preferentially at a five consecutive A(865)AAAA sequence

## CCN(CC)c1ccc2cc(C(=O)Nc3ccc4[nH]c(C(=O)N5C[C@@H](CCl)c6c5cc(OC(=O)Nc5ccccc5)c5[nH]cc(C)c65)cc4c3)oc2c1 [carzelesin]
L1210 leukemia
  ILS: 150±8%
  survival: 2/6

## CCCC(=O)Nc1cc(C(=O)Nc2cc(C(=O)Nc3ccc(O)cc3CCBr)n(C)c2)n(C)c1 [Compound 7, N-(2-(2-Bromoethyl)-4-hydroxyphenyl)-1-methyl-4-(1-methyl-4-butanamidopyrrole-2-carboxamido)pyrrole-2-carboxamide]
[4]; [8]
  IC50: > 100 µM
[4]; Homo sapiens, K562, 72 h, read-out: IC50 continuous exposure (3 days)
  IC50: 3.64 ± 0.05 µM
[4]; K562, one hour exposure
  activity in words: not active
[5]; Homo sapiens, 1 h, read-out: IC50 LS174T 1 hour exposure
  IC50: 237 µM
[5]; one hour exposure
  activity in words: not active

## Cl.Cn1cc(NC(=O)c2cccn2C)cc1C(=O)NCCCCNC(=O)CCCC(=O)Nc1ccc2oc(C(=O)Nc3cc(O)ccc3CCCl)cc2c1 [Compound 17]
Supercoil pBR322 DNA
  Form II DNA (%): quantitative
Plasmid pBR322 DNA
  alkylation of the 5′-AAAAA sequence: did not alkylate
  alkylation selectivity (sequence): 3′-ATTT-5′

## COc1cc2cc(C(=O)Nc3cc(O)c4ccccc4c3CCCl)[nH]c2c(OC)c1OC [Compound 26, 4-(2-Chloroethyl)-3-(5,6,7-trimethoxyindole-2-carboxamido)-1-naphthol]
[1]
  range of activity: micromolar range
  activity against leukemia cells: none of these compounds showed much activity
  activity against melanoma cells: active
  activity against solid tumors cells: strong activity
Supercoil pBR322 DNA; [7]
  Form I DNA (%): 0%
  Form II DNA (%): quantitative
Plasmid pBR322 DNA
  covalent DNA AT sequence selectivity: preferentially at a five consecutive A(865)AAAA sequence

## COc1c2c(c3cc(C(=O)N4CCc5c4c(OC)c(O)c4[nH]c(C(=O)N6CC7C[C@@]78C6=CC(=O)c6[nH]cc(C)c68)cc54)[nH]c3c1O)CCN2C(N)=O (single isomer, unassigned; (+)) [(+)-CC1065]
[3]; L1210
  IC50: 20 pM
[3]
  IC50 values (range in words): pM range
[6]
  delayed lethality / delayed toxicity: delayed lethality

## COC(=O)c1cc2c([nH]1)C(=O)C=C1N(C(=O)c3cc4cc(OC)c(OC)c(OC)c4[nH]3)CC3CC123 (single isomer, unassigned; (+)) [DUMSA, (+)-duocarmycin SA]
[3]
  IC50 values (range in words): pM range
[6]
  delayed lethality / delayed toxicity: devoid of this toxic side effect

## CCCC(=O)Nc1cc(C(=O)Nc2cc(C(=O)Nc3ccc(O)cc3CCCl)n(C)c2)n(C)c1 [Compound 6, N-(2-(2-Chloroethyl)-4-hydroxyphenyl)-1-methyl-4-(1-methyl-4-butanamidopyrrole-2-carboxamido)pyrrole-2-carboxamide]
[4]; [8]
  IC50: > 30 µM

## 4-(2-Bromoethyl)-3-[5-(5-benzofuran-2-carboxamido)indole-2-carboxamido]phenol [Compound 2]
[4]; K562 cells, continuous exposure (3 days), read-out: IC50 continuous exposure (3 days)
  IC50: 1.6 ± 0.9 µM
[4]; read-out: IC50 1 hour exposure, K562 cells, 1 hour exposure
  IC50: 23.8 ± 9.7 µM
Plasmid pBR322 DNA
  sequence selectivity: stronger sequence selectivity than 27
Plasmid pBR322 DNA; compared with chloro-compound 1
  efficiency in alkylating DNA: less efficient in alkylating DNA
